Source: patent publication US20200397795A1, “PROPHYLACTIC TREATMENT OF VENOUS THROMBOEMBOLISM” (JANSSEN PHARMACEUTICALS, INC., priority 2019, published 2020)

Test system: venous thromboembolism (VTE) in MAGELLAN subpopulation
Assay: Retrospective analysis of MAGELLAN subpopulation (five bleeding risk factors excluded): efficacy
Assay type: in vivo, human
Conditions: for Primary efficacy endpoint outcome, incidence: Day 10, per-protocol analysis set; for Asymptomatic lower extremity proximal DVT, incidence / VTE-related death, incidence: Day 35
Excerpt: Using key exclusion criteria from Study 2: MARINER to exclude subjects with a higher risk of bleeding, a subpopulation of Study 1: MAGELLAN was retrospectively analyzed to re-evaluate benefit-risk in this subpopulation, which included efficacy endpoints of symptomatic VTE and VTE-related death and safety endpoints of major bleeding events. The key exclusion criteria from Study 2: MARINER that were retrospectively applied to the Study 1: MAGELLAN population for this analysis included: active gastroduodenal ulcer within 3 months of randomization/currently symptomatic; any bleeding within 3 months prior to randomization or during index hospitalization; active cancer at randomization; medical history of severe bronchiectasis/pulmonary cavitation; or dual antiplatelet therapy at baseline. Subjects that met one or more of these criteria prior to or at randomization using standardized MedDRA queries or preferred terms of MedDRA version 13.1 based on data entered into the case report forms in the original MAGELLAN database were excluded from the subpopulation analysis.
The MAGELLAN study (Study 1) randomized 8,101 patients from 562 sites in 52 countries and the safety population of patients that received at least one dose of study medication was 7,998 patients. The five key risk factors for major bleeding events in MAGELLAN were identified using study data forms as described herein. With the retrospective use of these risk factors, 1,551 patients were excluded from MAGELLAN and the remaining 6,447 patients, approximately 80% of MAGELLAN, represented the subpopulation. Patients in both treatment groups had no differences in baseline characteristics, and had similar medical histories, with at least 99% of patients having complete immobility or decreased mobility and median total number of days in hospital of 10.

Molecule	Primary efficacy endpoint outcome, incidence [%]	Asymptomatic lower extremity proximal DVT, incidence [%]	VTE-related death, incidence [%]	Primary efficacy outcome, incidence (Day 35, mITT) [%]	Primary efficacy endpoint, RR vs enoxaparin (Day 10, per-protocol)	Primary efficacy outcome, RR vs enoxaparin (Day 35, mITT)
Enoxaparin	3.0	4.4	1.0	5.7	–	–
O=C(NC[C@H]1CN(c2ccc(N3CCOCC3=O)cc2)C(=O)O1)c1ccc(Cl)s1 [Rivaroxaban, 5-chloro-N-({(5S)-2-oxo-3-[4-(3-oxo-4-morpholinyl)phenyl]-1,3,oxazolidin-5-yl}methyl)-2-thiophenecarboxamide]	2.4	3.0	0.6	3.9	0.820	0.68
